Experimental data reported in patent US10144714B2, “Methods of making protein deacetylase inhibitors” (Acetylon Pharmaceuticals, Inc., priority 2015, dated 2018).

What was measured:
[1] = Thermal gravimetric analysis (TGA); format: physicochemical; conditions: from 35 to 150° C.; Form I
Protocol: Thermal Gravimetric Analysis (TGA) data were collected using a TA Instruments TGA Q500. Approximately, 5-10 mg samples were placed in an open, pre-tared aluminum sample pan and scanned from 25 to 300° C. at a rate of 10° C./min using a nitrogen purge at 60 mL/min.

[2] = Dynamic vapor sorption (DVS) analysis; format: physicochemical; conditions: relative humidity between 0-95 percent, Form I/Pattern A
Protocol: Dynamic Vapor Soprtion (DVS) analysis was performed using an Aquadyne DVS-2 gravimetric water sorption analyzer. The relative humidity was adjusted between 2-95% and the weight of the sample was continuously monitored and recorded with respect to the relative humidity and time.

weight loss [1]: less than 0.1%
change in the crystalline form ([2]; after DVS): no change in the crystalline form
moisture uptake [2]: less than 0.2%
Compound: O=C(CCCCCCNC(=O)c1cnc(N(c2ccccc2)c2ccccc2Cl)nc1)NO [Compound (I), 2-((2-chlorophenyl)(phenyl)amino)-N-(7-(hydroxyamino)-7-oxoheptyl)pyrimidine-5-carboxamide]
